Results from ChEMBL document CHEMBL4673243, “Discovery of 9-Cyclopropylethynyl-2-((S)-1-[1,4]dioxan-2-ylmethoxy)-6,7-dihydropyrimido[6,1-a]isoquinolin-4-one (GLPG1205), a Unique GPR84 Negative Allosteric Modulator Undergoing Evaluation in a Phase II Clinical Trial” (J Med Chem, 2020).
Converted amounts (≈) assume the structure as drawn.

Key:
[1] = biological target: Cytochrome P450 3A4 (Homo sapiens, UniProt P08684); experiment: Time-dependent inhibition of CYP3A4 in human liver microsomes using testosterone as substrate and in presence of co-factor by LC-MS/MS analysis
Chain of Cytochrome P450 3A4 (P08684 whole entry): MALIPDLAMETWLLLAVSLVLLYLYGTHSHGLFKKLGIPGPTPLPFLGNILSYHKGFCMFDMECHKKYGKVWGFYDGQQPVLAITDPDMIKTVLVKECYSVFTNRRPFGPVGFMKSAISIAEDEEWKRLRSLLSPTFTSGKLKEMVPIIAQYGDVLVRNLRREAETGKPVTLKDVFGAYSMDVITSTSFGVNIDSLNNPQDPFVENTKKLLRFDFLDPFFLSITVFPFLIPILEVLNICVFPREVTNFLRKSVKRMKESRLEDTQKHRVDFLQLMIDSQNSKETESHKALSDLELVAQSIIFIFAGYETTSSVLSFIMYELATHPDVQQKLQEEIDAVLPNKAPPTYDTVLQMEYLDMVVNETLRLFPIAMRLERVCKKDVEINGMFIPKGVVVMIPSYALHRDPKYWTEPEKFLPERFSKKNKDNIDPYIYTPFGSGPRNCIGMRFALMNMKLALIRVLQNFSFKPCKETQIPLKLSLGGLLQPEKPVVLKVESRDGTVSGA

[2] = biological target: Cytochrome P450 2C19 (Homo sapiens, UniProt P33261); experiment: Inhibition of CYP2C19 in human liver microsomes using probe substrate and in presence of co-factor preincubated for 20 mins followed by substrate addition by LC-MS/MS analysis
Chain of Cytochrome P450 2C19 (P33261 whole entry): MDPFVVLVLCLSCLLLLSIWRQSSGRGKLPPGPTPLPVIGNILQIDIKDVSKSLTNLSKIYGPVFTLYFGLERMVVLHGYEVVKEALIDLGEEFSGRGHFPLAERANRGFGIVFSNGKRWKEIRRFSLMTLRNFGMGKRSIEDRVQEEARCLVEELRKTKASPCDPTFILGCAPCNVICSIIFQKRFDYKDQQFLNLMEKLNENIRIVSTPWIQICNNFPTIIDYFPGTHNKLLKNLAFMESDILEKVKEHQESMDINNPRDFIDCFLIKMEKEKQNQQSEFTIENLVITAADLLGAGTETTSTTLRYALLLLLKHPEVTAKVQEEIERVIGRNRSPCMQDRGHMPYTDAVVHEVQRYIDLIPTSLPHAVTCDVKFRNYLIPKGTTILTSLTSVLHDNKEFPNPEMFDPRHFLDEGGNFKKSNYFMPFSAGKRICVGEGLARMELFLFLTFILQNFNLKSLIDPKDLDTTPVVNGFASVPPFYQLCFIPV

[3] = Inhibition of embelin-induced migration of human neutrophils preincubated for 30 mins followed by embelin addition and measured after 1 hr by ATPlite luminescence assay; details: Neutrophil
[4] = Thermodynamic solubility of compound at pH 7.4; details: buffer
[5] = Apparent permeability from apical to basolateral in human Caco2 cells at 10 uM measured after 60 mins by lucifer yellow dye based LC-MS/MS analysis; details: Caco-2
[6] = Plasma protein binding in dog at 5 uM measured after 4 hrs by LC-MS/MS analysis
[7] = Half-life in male Sprague-Dawley rat at 0.5 mg/kg, iv administered as single bolus dose using PEG-200/NaCl formulation measured after 24 hrs by LC-MS/MS analysis; details: in vivo
[8] = Clearance in male Sprague-Dawley rat at 0.5 mg/kg, iv administered as single bolus dose using PEG-200/NaCl formulation measured after 24 hrs by LC-MS/MS analysis; details: in vivo
[9] = Clearance in Beagle dog at 0.5 mg/kg, iv administered as 10 mins infusion via catheter by LC-MS/MS analysis; details: in vivo
[10] = Volume of distribution at steady state in Beagle dog at 0.5 mg/kg, iv administered as 10 mins infusion via catheter by LC-MS/MS analysis; details: in vivo
[11] = Half-life in plasma of Balb/c mouse model of DSS-induced colitis at 10 mg/kg, po administered using PEG-200/water formulation starting from day 1 to 11 measured by LC-MS analysis
[12] = biological target: Cytochrome P450 2C9 (Homo sapiens) (UniProt P11712)
Chain of Cytochrome P450 2C9 (Homo sapiens) (P11712 whole entry, looked up): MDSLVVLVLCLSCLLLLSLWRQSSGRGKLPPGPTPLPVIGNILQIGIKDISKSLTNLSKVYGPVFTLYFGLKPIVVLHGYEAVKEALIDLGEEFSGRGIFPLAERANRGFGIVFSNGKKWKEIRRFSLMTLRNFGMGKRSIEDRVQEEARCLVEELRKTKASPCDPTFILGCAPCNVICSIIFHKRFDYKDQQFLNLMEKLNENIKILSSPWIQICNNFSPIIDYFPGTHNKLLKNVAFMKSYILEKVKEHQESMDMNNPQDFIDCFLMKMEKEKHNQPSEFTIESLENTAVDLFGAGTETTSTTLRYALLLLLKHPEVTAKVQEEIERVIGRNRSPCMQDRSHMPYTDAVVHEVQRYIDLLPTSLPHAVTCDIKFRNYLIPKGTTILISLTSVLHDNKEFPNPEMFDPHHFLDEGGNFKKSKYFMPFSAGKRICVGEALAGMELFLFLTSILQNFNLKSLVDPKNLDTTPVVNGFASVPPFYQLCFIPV

[13] = biological target: Cytochrome P450 2D6 (Homo sapiens) (UniProt P10635)
Chain of Cytochrome P450 2D6 (Homo sapiens) (P10635 whole entry, looked up): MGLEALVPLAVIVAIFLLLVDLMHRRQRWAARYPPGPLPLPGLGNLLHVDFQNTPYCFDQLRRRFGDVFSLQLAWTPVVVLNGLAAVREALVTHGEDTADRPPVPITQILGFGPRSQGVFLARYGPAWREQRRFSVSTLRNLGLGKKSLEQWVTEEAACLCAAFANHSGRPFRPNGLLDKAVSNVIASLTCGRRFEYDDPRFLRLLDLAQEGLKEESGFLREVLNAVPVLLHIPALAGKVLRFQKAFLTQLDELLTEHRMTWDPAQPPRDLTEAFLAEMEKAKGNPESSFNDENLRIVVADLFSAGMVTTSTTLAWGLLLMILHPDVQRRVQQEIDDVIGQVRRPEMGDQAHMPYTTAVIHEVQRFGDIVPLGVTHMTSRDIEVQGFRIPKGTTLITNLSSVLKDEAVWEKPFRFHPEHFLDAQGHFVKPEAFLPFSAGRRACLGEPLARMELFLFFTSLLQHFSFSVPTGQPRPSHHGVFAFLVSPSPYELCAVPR

[14] = in vivo; details: CD1, mouse, iv, 1 mg/kg
[15] = in vivo; details: CD1, mouse, po, 5 mg/kg
[16] = in vivo; details: male, Sprague-Dawley, rat, po
[17] = in vivo; details: male, Sprague-Dawley, rat, po; remark: listed apart in the source
Description: Half-life in male Sprague-Dawley rat at 2.5 mg/kg, po administered as single gavage dose using PEG-200/water formulation measured after 24 hrs by LC-MS/MS analysis

[18] = in vivo; details: Beagle, dog, iv, 0.5 mg/kg
[19] = in vivo; details: Beagle, dog, po
[20] = in vivo; details: Beagle, dog, po; remark: listed apart in the source
Description: Half life in Beagle dog at 2.5 mg/kg, po administered as single dose via gavage by LC-MS/MS analysis

[21] = in vivo; details: Balb/c, mouse, plasma, po, 3 mg/kg
[22] = in vitro; details: mouse, liver microsomes
[23] = in vitro; details: human, liver microsomes
[24] = in vitro; details: rat, cryopreserved hepatocytes
[25] = in vitro; details: dog, cryopreserved hepatocytes
[26] = in vitro; details: human, cryopreserved hepatocytes
[27] = in vitro; details: dog, cryopreserved hepatocytes; remark: listed apart in the source

O=c1nc(OC[C@@H]2COCCO2)cc2n1CCc1cc(C#CC3CC3)ccc1-2 [GLPG-1205]
IC50 [1]: > 50 µM | IC50 [2]: > 100 µM | IC50 [3]: 0.011 µM | solubility thermodynamic [4]: 7.75 µg/mL (≈ 20.5 µM) | Papp A→B at 1 h, 10 µM [5]: 419 nm/s | fraction unbound at 4 h, 5 µM [6]: 0.065 | half-life at 24 h [7]: 1 h | clearance at 24 h [8]: 0.7 L/h/kg | clearance at […] [9]: 1.2 L/h/kg | Vd at […] [10]: 2 L/kg | half-life [11]: 2.3 h | IC50 [12]: 34.6 µM | IC50 [13]: > 100 µM | AUC(0-t) at 24 h [14]: 1.05 µg·h/mL | Cmax at 24 h [15]: 4.59 µg/mL | Tmax at 24 h [16]: 1.5 h | half-life at 24 h [17]: 1.3 h | AUC(0-t) at […] [18]: 0.41 µg·h/mL | AUC(0-t) at 24 h [19]: 2.23 µg·h/mL | half-life [20]: 2 h | Cmax [21]: 1.84 µg/mL | CLint scaled at 0.5 h, 1 µM [22]: 8 L/h/kg | CLint scaled at 0.5 h, 1 µM [23]: < 1.16 L/h/kg | half-life at 1 µM [24]: > 3.33 h | half-life at 1 µM [25]: > 3.33 h | half-life at 1 µM [26]: > 3.33 h | CLint scaled at 1 µM [27]: < 1.45 L/h/kg
